Measurements taken from PMC4774911, “Biochemical Screening of Five Protein Kinases from Plasmodium falciparum against 14,000 Cell-Active Compounds” (PLoS ONE, 2016).
Like-named read-outs stand apart in the source and are kept apart here.

Experiments:
[1] = biological target: T1, Plasmodium falciparum protein kinase 6 (PK6) (Plasmodium falciparum, UniProt Q8IDW1); experiment: biochemical; settings: hits below 1 uM; read-out: PK6 IC50
T1 construct: 6-Histidine (N); made in house
T1 sequence (Q8IDW1 1-305): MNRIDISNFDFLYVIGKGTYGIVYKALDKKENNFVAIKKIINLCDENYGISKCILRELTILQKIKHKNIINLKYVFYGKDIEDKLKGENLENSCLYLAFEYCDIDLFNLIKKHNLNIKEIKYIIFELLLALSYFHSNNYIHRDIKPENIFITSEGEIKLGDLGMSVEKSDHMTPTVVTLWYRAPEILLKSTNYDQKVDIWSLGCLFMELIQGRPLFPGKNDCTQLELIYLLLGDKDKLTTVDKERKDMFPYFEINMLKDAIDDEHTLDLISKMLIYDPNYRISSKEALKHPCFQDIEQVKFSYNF

[2] = biological target: T2, Plasmodium falciparum calcium-dependent protein kinase 1 (CDPK1) (Plasmodium falciparum, UniProt P62344); experiment: CDPK1 Kinase-Glo ATP-consumption screen and dose-response; format: biochemical
T2 construct: 6-Histidine (N); made in house
T2 sequence (P62344 whole entry): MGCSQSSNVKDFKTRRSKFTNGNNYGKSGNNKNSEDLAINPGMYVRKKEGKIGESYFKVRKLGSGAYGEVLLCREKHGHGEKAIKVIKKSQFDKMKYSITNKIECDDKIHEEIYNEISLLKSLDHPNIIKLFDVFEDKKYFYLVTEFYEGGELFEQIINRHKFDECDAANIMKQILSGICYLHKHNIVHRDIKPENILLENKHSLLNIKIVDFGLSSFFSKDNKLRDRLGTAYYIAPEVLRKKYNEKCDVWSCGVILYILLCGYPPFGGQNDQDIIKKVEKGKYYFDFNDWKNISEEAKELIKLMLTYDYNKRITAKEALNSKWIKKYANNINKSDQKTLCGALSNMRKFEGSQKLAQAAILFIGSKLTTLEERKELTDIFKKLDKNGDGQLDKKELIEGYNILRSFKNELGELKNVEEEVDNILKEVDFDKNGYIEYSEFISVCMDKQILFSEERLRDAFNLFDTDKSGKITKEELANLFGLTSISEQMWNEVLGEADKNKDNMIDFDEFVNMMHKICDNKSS
Outline: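 Single-point testing used 1 μM final compound, then dose-response, against CDPK4 and CDPK1 with Syntide-2 (40 μM) as substrate. After 90 min, reactions were halted by 5 mM EGTA, and kinase activity was inferred from depleted ATP via Kinase-Glo luminescence.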

P. falciparum 3D7 cells = settings: 3D7; ref downloaded from ChEMBL; cited from earlier work
3D7 PFLDH = system: 3D7 PFLDH; parameters: method as in downloaded from ChEMBL; settings: ref downloaded from ChEMBL; cited from earlier work
DD2 = system: DD2; parameters: method as in downloaded from ChEMBL; settings: ref downloaded from ChEMBL; cited from earlier work
HepG2 cells = settings: HEPG2; ref downloaded from ChEMBL; cited from earlier work
[3] = hits below 1 uM, read-out: CDPK1 IC50

Row | IC50 [2, 3] [nM] | Compound | IC50 [1] [nM] | PCT_IHB_3D7 (P. falciparum 3D7 cells) | pXC50_3D7 (P. falciparum 3D7 cells) | PCT_INHIB_3D7_PFLDH (3D7 PFLDH) | PCT_INHB_DD2 (DD2) | PCT_INHIB_HEPG2 (HepG2 cells) | IC50 [2] [nM]
1 | 24 | NCCNC(=O)c1ccc(-c2cnc3[nH]cc(-c4ccc(C(N)=O)cc4)c3c2)cc1 [TCMDC-132359] | 931 | 99 | 6.7676 | 0 | 98 | 2 | –
2 | – | COc1c(CN2CCOCC2)cccc1-c1cc2c(-c3ccc(C(=O)O)c(C(C)C)c3)ccnc2[nH]1.O=C(O)C(F)(F)F [TCMDC-135049] | 695 | 98 | 6.1293 | 0 | 90 | 44 | –
3 | – | COc1c(CN2CCCC2)cccc1-c1cc2c(-c3ccc(C(=O)O)c(C(C)C)c3)ccnc2[nH]1.O=C(O)C(F)(F)F [TCMDC-135050] | 541 | 99 | 6.357 | 0 | 98 | 56 | –
4 | 371 | Clc1ccc(-c2cnc3ccc(NCCc4cccnc4)nn23)cc1 [TCMDC-136680] | – | 97 | 6.067 | 0 | 32 | 34 | –
5 | – | COc1ccc(-c2cnc3ccc(NCCCO)nn23)cc1OC [TCMDC-136683] | – | 98 | 6.172 | 0 | 90 | 9 | 361
6 | 379 | COc1ccc(-c2cnc3ccc(NC4CCC(O)CC4)nn23)cn1 (stereo not shown) [TCMDC-136694] | – | 98 | 6.146 | 4 | 73 | 54 | –
7 | 884 | Cl.Oc1cccc(Nc2ccnc3cc(-c4ccncc4)ccc23)c1 [TCMDC-138292] | – | 100 | 5.98 | 1 | 99 | 8 | –
8 | 191 | Cc1nc(-c2cccc(Nc3ccnc4cc(-c5nccs5)ccc34)c2)no1.Cl [TCMDC-138334] | – | 99 | 6.492 | 0 | 90 | 37 | –
9 | 186 | Cc1nnc(-c2cccc(Nc3ccnc4cc(-c5nccs5)ccc34)c2)o1.Cl [TCMDC-138335] | – | 95 | 6.199 | 0 | 89 | 38 | –
10 | 282 | Oc1cc(Nc2ccnc3cc(I)ccc23)c(F)cc1Cl [TCMDC-138386] | – | 92 | 6.08 | 0 | 77 | 0 | –
11 | 604 | CN(C)CCN(C)Cc1ccc(-c2ccc3c(Nc4ccc(Cl)cc4F)ccnc3c2)o1 [TCMDC-138388] | – | 100 | 6.444 | 1 | 76 | 20 | –
12 | 185 | CN(C)Cc1ccc(-c2ccc3c(Nc4ccc(Cl)cc4F)ccnc3c2)o1 [TCMDC-138389] | – | 100 | 6.6173 | 0 | 99 | 13 | –
13 | 374 | CN(C)CCNCc1ccc(-c2ccc3c(Nc4ccc(Cl)cc4F)ccnc3c2)o1 [TCMDC-138391] | – | 99 | 6.681 | 0 | 100 | 14 | –
14 | 406 | CN1CCN(Cc2ccc(-c3ccc4c(Nc5ccc(Cl)cc5F)ccnc4c3)o2)CC1 [TCMDC-138395] | – | 100 | 6.811 | 0 | 100 | 47 | –
15 | 383 | Fc1cc(Cl)ccc1Nc1ccnc2cc(-c3ccc(CNCCN4CCOCC4)o3)ccc12 [TCMDC-138397] | – | 100 | 6.5582 | 0 | 100 | 13 | –
16 | 435 | c1ccc(Oc2ccc(Nc3ccnc4cc(-c5ccc(CNCCN6CCOCC6)o5)ccc34)cc2)cc1 [TCMDC-138398] | – | 99 | 6.358 | 0 | 99 | 20 | –

Row | IC50 [2, 3] [nM] | Compound | IC50 [1] [nM] | PCT_IHB_3D7 (P. falciparum 3D7 cells) | pXC50_3D7 (P. falciparum 3D7 cells) | PCT_INHIB_3D7_PFLDH (3D7 PFLDH) | PCT_INHB_DD2 (DD2) | PCT_INHIB_HEPG2 (HepG2 cells) | IC50 [2] [nM]
17 | 681 | CN(C)CCNCc1ccc(-c2ccc3c(Nc4ccc(Oc5ccccc5)cc4)ccnc3c2)o1 [TCMDC-138399] | – | 100 | 6.553 | 2 | 99 | 19 | –
18 | 718 | CN(C)CCN(C)Cc1ccc(-c2ccc3c(Nc4ccc(Oc5ccccc5)cc4)ccnc3c2)o1 [TCMDC-138400] | – | 100 | 6.746 | 0 | 100 | 5 | –
19 | 915 | CN(C)CCN(C)Cc1nc(-c2ccc3c(Nc4ccc(Oc5ccccc5)cc4)ccnc3c2)cs1 [TCMDC-138408] | – | 100 | 6.673 | 0 | 100 | 27 | –
20 | 887 | CN(C)CCNCc1nc(-c2ccc3c(Nc4ccc(Oc5ccccc5)cc4)ccnc3c2)cs1 [TCMDC-138410] | – | 100 | 6.1332 | 6 | 100 | 8 | –
21 | 513 | CN(C)Cc1ccc(-c2ccc3c(Nc4ccc(Oc5ccccn5)cc4)ccnc3c2)o1 [TCMDC-138425] | – | 100 | 6.798 | 1 | 100 | 18 | –
22 | 436 | COCCNCc1cccc(-c2ccc3c(Nc4cc(O)c(Cl)cc4F)ccnc3c2)c1 [TCMDC-138429] | – | 100 | 6.944 | 7 | 79 | 0 | –
23 | 762 | CN1CCN(Cc2cccc(-c3ccc4c(Nc5cc(O)c(Cl)cc5F)ccnc4c3)c2)CC1 [TCMDC-138430] | – | 100 | 6.114 | 4 | 100 | 0 | –
24 | 71 | CS(=O)(=O)CCNCc1cccc(-c2ccc3c(Nc4cc(O)c(Cl)cc4F)ccnc3c2)c1 [TCMDC-138435] | – | 100 | 6.595 | 0 | 100 | 9 | –
25 | 150 | COCCNCc1ncsc1-c1ccc2c(Nc3cc(O)c(Cl)cc3F)ccnc2c1 [TCMDC-138441] | – | 100 | 6.262 | 0 | 92 | 0 | –
26 | 131 | CN1CCN(Cc2ccc(-c3ccc4c(Nc5cc(O)c(Cl)cc5F)ccnc4c3)o2)CC1 [TCMDC-138446] | – | 100 | 6.961 | 0 | 99 | 2 | –
27 | 125 | Cc1ccc(O)cc1Nc1ccnc2cc(-c3cccc(CNCCS(C)(=O)=O)c3)ccc12 [TCMDC-138472] | – | 99 | 6.078 | 2 | 100 | 9 | –
28 | 979 | COCCNCc1cccc(-c2ccc3c(Nc4ccc(Oc5ccccc5)cc4)ccnc3c2)c1 [TCMDC-138478] | – | 100 | 6.287 | 2 | 99 | 25 | –
29 | 913 | COCCNCc1cccc(-c2ccc3c(Nc4ccc(Oc5cccnc5)cc4)ccnc3c2)c1 [TCMDC-138487] | – | 100 | 6.749 | 0 | 99 | 58 | –
30 | 966 | CS(=O)(=O)CCNCc1cccc(-c2ccc3c(Nc4ccc(Oc5cccnc5)cc4)ccnc3c2)c1 [TCMDC-138488] | – | 100 | 6.847 | 4 | 99 | 27 | –
31 | 705 | c1cncc(Oc2ccc(Nc3ccnc4cc(-c5cccc(CNCCN6CCOCC6)c5)ccc34)cc2)c1 [TCMDC-138492] | – | 100 | 6.952 | 4 | 99 | 14 | –
32 | 845 | CN(C)CCNCc1cccc(-c2ccc3c(Nc4ccc(Oc5ccccn5)cc4)ccnc3c2)c1 [TCMDC-138493] | – | 99 | 6.633 | 2 | 100 | 27 | –
